Results reported in patent publication US12673032B2, “Exploiting estrogen receptor beta and TP53 interaction as a new therapeutic strategy for cancer” (Health Research, Inc., priority 2018, dated 2026).
pIC50: −log10 of the molar value. Read-outs that look alike come from different tables or passages of the source.

Key:
[1] = system: TP73 recruitment to the PUMA gene promoter; test: qChIP for BBC3 (PUMA) promoter occupancy by TP73; type: cell-based; settings: MDA-MB-231 cells; 5 μM for 24 hours
Procedure: FIGS. 17A-C. […] (A) Cells were treated with 5 μM TAM for 24 hours. After 24 hours, BBC3 promoter occupancy by TP73 was determined using qChIP in MDA-MB-231 cells. (B) SK-BR-3 cells were transfected with si-NS or si-ESR2 #2 for 48 hours and treated with or without 5 μM TAM for 24 hours. After 72 hours, expression of TP53 target genes (CDKN1A and BBC3) was determined using qRT-PCR. (C) SK-BR-3 cells were transfected with si-NS or si-TP73 for 48 hours and treated with or without 5 μM TAM for 24 hours. After 72 hours, expression of TP53 target genes (CDKN1A and BBC3) was determined using qRT-PCR. Error bars are represented as mean SD of three independent experiments. All ‘p’ values were determined by two tailed student t-test. qRT-PCR=Quantitative real time polymerase chain reaction. si-NS=non-specific siRNA; si-ESR2 #2=ESR2 specific siRNA; si-TP73=TP73 specific siRNA; VEH=Vehicle; TAM=4-Hydroxytamoxifen.
Chromatin immunoprecipitation (ChIP) assay. […] Immunoprecipitated chromatin samples were analyzed through real-time q-PCR as stated above. A region downstream of CDKN1A/p21 promoter sequence was used as endogenous control for the relative quantitation of immunoprecipitated chromatin fragments (Details of the primers are provided in Table 1). The promoter occupancy by transcription factor (s) of interest was analyzed as qRT-PCR.

[2] = system: MDA-MB-231 cells expressing mutant p53; test: Doxorubicin cell-killing IC50 in TNBC cells expressing mutant p53, with or without tamoxifen; type: cell-based; settings: for pIC50: Homo sapiens

For 4-hydroxy tamoxifen, the “recruitment of TP73 to the PUMA gene promoter (qChIP)” value [1] was “enhanced”.

`COc1cccc2c1C(=O)c1c(O)c3c(c(O)c1C2=O)C[C@@](O)(C(=O)CO)C[C@@H]3O[C@H]1C[C@H](N)[C@H](O)[C@H](C)O1` [doxorubicin] was tested, and the pIC50 ([2]; MDA-MB-231, read-out: IC50 of doxorubicin with addition of tamoxifen) was 6.82, the pIC50 ([2]; read-out: IC50 (drug concentration required to kill 50% cells) of doxorubicin, MDA-MB-231 expressing mutant p53, doxorubicin alone) was 5.98 and the “Decrease of doxorubicin IC50 on addition of tamoxifen” value ([2]; MDA-MB-231 expressing mutant p53) was “about 7 fold”.
